# Experimental data published in US11358936B2, “Lysyl oxidase-like 2 inhibitors and uses thereof” (PharmAkea, Inc., priority 2015, dated 2022).
# pIC50: −log10 of the molar value. Structures can show the parent of a compound that is named as a salt.
# Biological target: human LOXL2 (Homo sapiens (Human), UniProt Q9Y4K0)
# Assay: Human LOXL2 Amine Oxidase Activity Assay (Amplex Red fluorescence)
# Format: biochemical
# Conditions: concentrated conditioned media from CHO cells stably expressing human LOXL2; 2 h at 37° C. preincubation; DAP substrate; read-out: IC50
# Procedure: LOXL2 amine oxidase activity is evaluated by measuring Amplex Red fluorescence using 10-20× concentrated conditioned media from CHO cells stably expressing human LOXL2. To assay for amine oxidase activity, 10 μL of the concentrated conditioned media is incubated with 2 μL of test compound in DMSO and 73 μL Assay Buffer (50 mM Borate Buffer, pH8) for 2 h at 37° C. After the 2 h incubation, 5 μl of 10 mM 1,5-Diaminopentane (DAP) diluted in Assay Buffer and 10 μl of Amplex Red Mix (8.5 μl Assay Buffer+0.5 μl of 10 mM Amplex Red+1 μl of 500 U/ml Horseradish Peroxidase) are added and the plate mixed and immediately placed on the FlexStaion for fluorescence measurements. Fluorescence is read in kinetic mode every 2 min for 1 hour at excitation=544 and emission=590. The amine oxidase activity is calculated from the slope of the linear portion of the curve.
# Sequence of human LOXL2 (Q9Y4K0 26-774): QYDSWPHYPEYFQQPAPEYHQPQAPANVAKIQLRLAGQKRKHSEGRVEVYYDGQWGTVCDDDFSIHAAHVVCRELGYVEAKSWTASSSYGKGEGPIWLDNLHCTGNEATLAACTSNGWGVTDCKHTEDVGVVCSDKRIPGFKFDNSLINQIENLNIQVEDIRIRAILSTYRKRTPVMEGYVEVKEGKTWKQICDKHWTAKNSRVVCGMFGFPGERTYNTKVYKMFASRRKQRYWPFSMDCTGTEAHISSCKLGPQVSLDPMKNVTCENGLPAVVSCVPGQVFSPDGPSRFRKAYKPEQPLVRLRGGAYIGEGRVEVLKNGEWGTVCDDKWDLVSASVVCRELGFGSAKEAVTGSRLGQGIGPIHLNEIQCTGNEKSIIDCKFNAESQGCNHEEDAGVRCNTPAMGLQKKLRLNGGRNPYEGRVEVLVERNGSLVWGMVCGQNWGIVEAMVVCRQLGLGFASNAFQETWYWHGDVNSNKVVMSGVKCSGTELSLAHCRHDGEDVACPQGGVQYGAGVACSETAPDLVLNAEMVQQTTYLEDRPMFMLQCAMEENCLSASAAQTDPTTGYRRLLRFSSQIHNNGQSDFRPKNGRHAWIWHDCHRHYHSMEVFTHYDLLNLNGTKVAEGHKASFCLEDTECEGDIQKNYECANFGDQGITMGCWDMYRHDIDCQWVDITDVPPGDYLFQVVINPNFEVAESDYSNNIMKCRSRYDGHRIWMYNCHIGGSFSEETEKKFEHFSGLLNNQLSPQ
row,Compound,pIC50
1,"NCc1ccnc(Oc2cccc(C(=O)NCc3cccc(C(=O)O)c3)c2)c1 [Compound 1-35, 3-((3-((4-Aminomethyl)pyridin-2-yl)oxy)benzamido)methyl)benzoic acid hydrochloride]",> 6.52
2,"NCc1ccnc(Oc2cccc(C(=O)N[C@@H](CO)c3ccccc3)c2)c1 [Compound 1-36, (R)-3-((4-Aminomethyl)pyridin-2-yl)oxy)-N-(2-hydroxy-1-phenylethyl)benzamide hydrochloride]",> 6.52
3,"NCc1ccnc(Oc2cccc(C(=O)NCc3ccc(-n4ccnc4)c(F)c3)c2)c1 [Compound 1-37, 3-((4-(Aminomethyl)pyridin-2-yl)oxy)-N-(3-fluoro-4-(1H-imidazol-1-yl)benzyl)benzamide dihydrochloride]",> 6.52
4,"N=C(N)c1cccc(CNC(=O)c2cccc(Oc3cc(CN)ccn3)c2)c1 [Compound 1-39, 3-((4-(Aminomethyl)pyridin-2-yl)oxy)-N-(3-carbamimidoylbenzyl)benzamide dihydrochloride]",> 6.52
5,"NCc1ccnc(Oc2cccc(C(=O)NCCc3ccccc3)c2)c1 [Compound 1-40, 3-((4-(Aminomethyl)pyridin-2-yl)oxy)-N-phenethylbenzamide hydrochloride]",> 6.52
6,"NCc1ccnc(Oc2cccc(C(=O)N3CCc4ccccc4C3)c2)c1 [Compound 1-41, (3-((4-(Aminomethyl)pyridin-2-yl)oxy)phenyl)(3,4-dihydroisoquinolin-2(1H)-yl)methanone trifluoroacetate]",> 6.52
7,"NCc1ccnc(Oc2cccc(C(=O)NCc3cc4ccccc4s3)c2)c1 [Compound 1-42, 3-((4-(Aminomethyl)pyridin-2-yl)oxy)-N-(benzo[b]thiophen-2-ylmethyl)benzamide hydrochloride]",> 6.52
8,"NCc1ccnc(Oc2cccc(C(=O)NCc3cnccn3)c2)c1 [Compound 1-43, 3-((4-(Aminomethyl)pyridin-2-yl)oxy)-N-(pyrazin-2-ylmethyl)benzamide hydrochloride]",> 6.52
9,"CCCCCCCCCCCCCNC(=O)c1cccc(Oc2cc(CN)ccn2)c1 [Compound 1-44, 3-((4-(Aminomethyl)pyridin-2-yl)oxy)-N-tridecylbenzamide hydrochloride]",> 6.52
10,"NCc1ccnc(OCc2cccc(C(=O)Nc3ccccc3)c2)c1 [Compound 1-45, 3-(((4-(Aminomethyl)pyridin-2-yl)oxy)methyl)-N-phenylbenzamide hydrochloride]",> 6.52
11,"NCc1ccnc(-c2cccnc2)c1 [Compound 2-3, [2,3′-Bipyridin]-4-ylmethanamine]",> 6.52
12,"NCc1ccnc(-c2ccc(F)cc2)c1 [Compound 2-4, (2-(4-Fluorophenyl)pyridin-4-yl)methanamine]",> 6.52
13,"NCc1ccnc(-c2cccc(C(=O)O)c2)c1 [Compound 2-5, hydrochloride]",6.00 to 6.52
14,"NCc1ccnc(-c2ccc(C(=O)O)cc2)c1 [Compound 2-6, 4-(4-Aminomethyl)pyridin-2-yl)benzoic acid trifluoroacetate]",6.00 to 6.52
15,"NCc1ccnc(Oc2cccc(Oc3ccccc3)c2)c1 [Compound 2-8, (2-(3-Phenoxyphenoxy)pyridin-4-yl)methanamine]",> 6.52
16,"NCc1ccnc(Oc2ccc(C(=O)O)cc2)c1 [Compound 2-9, 4-((4-(Aminomethyl)pyridin-2-yl)oxy)benzoic acid hydrochloride]",6.00 to 6.52
17,"NCc1ccnc(Oc2cccc3c2ccn3Cc2ccccc2)c1 [Compound 2-10, (2-((1-Benzyl-1H-indol-4-yl)oxy)pyridin-4-yl)methanamine hydrochloride]",> 6.52
18,"Cc1cc2c(Oc3cc(CN)ccn3)cccc2n1Cc1ccc(F)cc1F [Compound 2-11, (2-((1-(2,4-Difluorobenzyl)-2-methyl-1H-indol-4-yl)oxy)pyridin-4-yl)methanamine trifluoroacetate]",> 6.52
19,"Cc1cn(Cc2ccc(F)cc2F)c2cccc(Oc3cc(CN)ccn3)c12 [Compound 2-12, (2-((1-(2,4-Difluorobenzyl)-3-methyl-1H-indol-4-yl)oxy)pyridin-4-yl)methanamine trifluoroacetate]",> 6.52
20,"COc1ccc(Cn2c(C)cc3c(Oc4cc(CN)ccn4)cccc32)cn1 [Compound 2-13, (2-((1-((6-Methoxypyridin-3-yl)methyl)-2-methyl-1H-indol-4-yl)oxy)pyridin-4-yl)methanamine trifluoroacetate]",> 6.52

row,Compound,pIC50
1,"COc1ccc(Cn2cc(C)c3c(Oc4cc(CN)ccn4)cccc32)cn1 [Compound 2-14, (2-((1-((6-Methoxypyridin-3-yl)methyl)-3-methyl-1H-indol-4-yl)oxy)pyridin-4-yl)methanamine trifluoroacetate]",> 6.52
2,"NCc1ccnc(Oc2cccc3c2ccn3Cc2ccc(F)cn2)c1 [Compound 2-15, (2-((1-((5-Fluoropyridin-2-yl)methyl)-1H-indol-4-yl)oxy)pyridin-4-yl) methanamine hydrochloride]",> 6.52
3,"NCc1ccnc(Oc2cccc3c2ccn3Cc2ccc3ccccc3n2)c1 [Compound 2-16, (2-((1-(Quinolin-2-ylmethyl)-1H-indol-4-yl)oxy)pyridin-4-yl)methanamine hydrochloride]",> 6.52
4,"NCc1ccnc(Oc2cccc3c2ccn3Cc2cnc(C(F)(F)F)s2)c1 [Compound 2-17, (2-((1-((2-(Trifluoromethyl)thiazol-5-yl)methyl)-1H-indol-4-yl)oxy)pyridin-4-ylmethanamine hydrochloride]",> 6.52
5,"NCc1ccnc(Oc2cccc3c2ccn3-c2ccc(F)cc2)c1 [Compound 2-18, (2-((1-(4-Fluorophenyl)-1H-indol-4-yl)oxy)pyridin-4-yl)methanamine hydrochloride]",> 6.52
6,"Cn1cc(-n2ccc3c(Oc4cc(CN)ccn4)cccc32)cn1 [Compound 2-19, (2-((1-(1-Methyl-1H-pyrazol-4-yl)-1H-indol-4-yl)oxy)pyridin-4-yl)methanamine hydrochloride]",> 6.52
7,"COc1ccc(-n2ccc3c(Oc4cc(CN)ccn4)cccc32)cn1 [Compound 2-20, (2-((1-(6-Methoxypyridin-3-yl)-1H-indol-4-yl)oxy)pyridin-4-yl)methanamine hydrochloride]",> 6.52
8,"NCc1ccnc(Oc2cccc3c2ccn3-c2nc3ccc(F)cc3s2)c1 [Compound 2-21, (2-((1-(6-Fluorobenzo[d]thiazol-2-yl)-1H-indol-4-yl)oxy)pyridin-4-yl)methanamine hydrochloride]",> 6.52
9,"NCc1ccnc(Oc2cccc3c2ccn3CCc2ccc(F)cc2)c1 [Compound 2-22, (2-((1-(4-Fluorophenethyl)-1H-indol-4-yl)oxy)pyridin-4-yl)methanamine hydrochloride]",> 6.52
10,"NCc1ccnc(Oc2cccc3c2c(Br)cn3CCc2ccc(F)cc2)c1 [Compound 2-23, (2-((3-Bromo-1-(4-fluorophenethyl)-1H-indol-4-yl)oxy)pyridin-4-yl)methanamine hydrochloride]",> 6.52
11,"NCc1ccnc(Oc2cccc3c2ccn3C(=O)c2ccccc2)c1 [Compound 2-24, (4-((4-(Aminomethyl)pyridin-2-yl)oxy)-1H-indol-1-yl)(phenyl)methanone hydrochloride]",> 6.52
12,"NCc1ccnc(Oc2cccc3c2ccn3C(=O)Nc2ccccc2)c1 [Compound 2-25, 4-((4-(Aminomethyl)pyridin-2-yl)oxy)-N-phenyl-1H-indole-1-carboxamide hydrochloride]",> 6.52
13,"CN(C)C(=O)Cn1ccc2c(Oc3cc(CN)ccn3)cccc21 [Compound 2-26, 2-(4-((4-(Aminomethyl)pyridin-2-yl)oxy)-1H-indol-1-yl)-N,N-dimethylacetamide hydrochloride]",> 6.52
14,"NCc1ccnc(Oc2cccc3c2ccn3CC(=O)N2CCCCC2)c1 [Compound 2-27, 2-(4-((4-(Aminomethyl)pyridin-2-yl)oxy)-1H-indol-1-yl)-1-(piperidin-1-yl)ethanone hydrochloride]",> 6.52
15,"CN(C(=O)Cn1ccc2c(Oc3cc(CN)ccn3)cccc21)c1ccccc1 [Compound 2-30, 2-(4-((4-(Aminomethyl)pyridin-2-yl)oxy)-1H-indol-1-yl)-N-methyl-N-phenylacetamide hydrochloride]",> 6.52
16,"NCc1ccnc(Oc2cccc3c2ccn3CC(=O)N2CCCc3ccccc32)c1 [Compound 2-31, 2-(4-((4-(Aminomethyl)pyridin-2-yl)oxy)-1H-indol-1-yl)-1-(3,4-dihydroquinolin-1(2H)-yl)ethanone hydrochloride]",> 6.52
17,"NCc1ccnc(Oc2cccc3[nH]ccc23)c1 [Compound 2-32, (2-((1H-Indol-4-yl)oxy)pyridin-4-yl)methanamine trifluoroacetate]",> 6.52
18,"NCc1ccnc(Oc2cccc3c2CCN3c2nc3ccc(F)cc3s2)c1 [Compound 2-33, (2-((1-(6-Fluorobenzo[d]thiazol-2-yl)indolin-4-yl)oxy)pyridin-4-yl)methanamine hydrochloride]",> 6.52
19,"Cc1nn(Cc2ccc(F)cc2F)c2cccc(Oc3cc(CN)ccn3)c12 [Compound 2-35, (2-((1-(2,4-Difluorobenzyl)-3-methyl-1H-indazol-4-yl)oxy)pyridin-4-yl)methanamine trifluoroacetate]",> 6.52
20,"NCc1ccnc(Oc2cccc3c2CCC(=O)N3Cc2ccc(F)cc2F)c1 [Compound 2-36, 5-((4-(Aminomethyl)pyridin-2-yl)oxy)-1-(2,4-difluorobenzyl)-3,4-dihydroquinolin-2(1H)-one hydrochloride]",> 6.52
